Results: patent US20140088314A1, “BIFUNCTIONAL CHELATING AGENTS” (GENERAL ELECTRIC COMPANY, priority 2012, published 2014)

Tests used:
mammary MATBIII tumor = experiment: Dynamic contrast enhanced (DCE) MR tumor imaging; assay type: in vivo, SCID mice; details: dose 0.2 mmol/kg Gd, Fe, mammary MBIII rodent tumor model
Description: Cell Preparation: MATBIII breast cells (available from ATCC®) were trypsinized using 1×trypsin-EDTA. The cells were washed using 1× phosphate buffered saline (PBS) and aliquots of 2×10^6 cells were made in 1×PBS (100 uL). Prior to injection into the subject, 50 μL of basement membrane matrix (Matrigel®, BD Biosciences) was added to each aliquot.
Tumor Induction: All procedures involving animals were completed under protocols approved by the GE Global Research Institutional Animal Care and Use Committee. Female, 5-7 weeks old, SCID mice (Charles River Laboratories) were briefly anesthetized with 2% isoflurane and injected with 1×10^6 MATBIII breast cancer cells in 1×PBS (100 μL) and Matrigel SC to their left flank. The animals were monitored for 7 days post tumor cell injections at which point, precontrast agent MR images of the resulting lesions, typically 1 cm in diameter, were collected using the sequences described below.

[1] = Hydrodynamic size assay (dynamic light scattering); assay type: physicochemical; details: size printed beside agent name in Table 8
Description: The dilution was carried out to yield approximately 20,000 counts per second during the DLS measurement and the sample was allowed to equilibrate for 10 minutes in the instrument prior to data collection.

With `CNC[C@H](O)[C@@H](O)[C@H](O)[C@H](O)CO.CNC[C@H](O)[C@@H](O)[C@H](O)[C@H](O)CO.O=C([O-])CN(CCN(CC(=O)[O-])CC(=O)O)CCN(CC(=O)[O-])CC(=O)O.[Gd+3]` [Magnevist - Gd] the “Tumor-to-muscle signal enhancement ratio, Tumor: Muscle, Average” value (mammary MATBIII tumor) was 3.6 and the Agent size [1] was “Magnevist - Gd (1 nm)”.
